# Experimental data as given in US4316891A, “Extended N-terminal somatostatin” (The Salk Institute for Biological Studies, priority 1980, dated 1982).
# Where a SMILES comes first, the peptide text is derived from it. Bridges are numbered along the chain shown (N, C = ends).
# Experiments:
# [1] = test system: secretion of growth hormone; experiment: in vivo inhibition of growth hormone secretion stimulated by morphine in rats; details: in words
# Method: (§1) The statistical analysis of the results is carried out generally in accordance with the EXBIOL program reported in the article by Sakiz, Excerpta Medica, Int. Cong. Ser. No. 83 (1964), pp. 225-229.
# [2] = test system: cells of rat pituitary glands; experiment: in vitro inhibition of basal growth hormone secretion in rat pituitary cell cultures, side-by-side with somatostatin; format: cell-based; details: substantially pure peptide, in words
# Method: To determine the effectiveness of the peptides to inhibit the release of growth hormone, in vitro assays are carried out using both somatostatin-28and somatostatin-25 in side-by-side comparison with equimolar concentrations of somotostatin having a known effectiveness to inhibit the release of growth hormone by pituitary cells. Cultures are used which include cells of rat pituitary glands removed some four to five days previously. Both cultures of a defined standard medium and cultures which are considered optimal for the secretion of growth hormone, as a result of having additions of either 2% or 10% of serum from a foetal calf, are used for the comparative testing between either somatostatin and somatostatin-28 or between somatostatin and somatostatin-25.
# as §1
# [3] = juvenile-type diabetics, complete absence of circulating insulin; cited from earlier work
Compound,activity versus somatostatin to inhibit growth hormone secretion stimulated by morphine [1],potency versus somatostatin in inhibiting the release of GH in vitro [2],diminution of fasting hyperglycemia [3] [%]
CSCC[C@H](NC(=O)[C@H](C)NC(=O)[C@@H]1CCCN1C(=O)[C@H](CC(N)=O)NC(=O)[C@@H](N)CO)C(=O)N[C@@H](C)C(=O)N1CCC[C@H]1C(=O)N[C@@H](CCCNC(=N)N)C(=O)N[C@@H](CCC(=O)O)C(=O)N[C@@H](CCCNC(=N)N)C(=O)N[C@@H](CCCCN)C(=O)N[C@@H](C)C(=O)NCC(=O)N[C@H]1CSSC[C@@H](C(=O)O)NC(=O)[C@H](CO)NC(=O)[C@H]([C@@H](C)O)NC(=O)[C@H](Cc2ccccc2)NC(=O)[C@H]([C@@H](C)O)NC(=O)[C@H](CCCCN)NC(=O)[C@H](Cc2c[nH]c3ccccc23)NC(=O)[C@H](Cc2ccccc2)NC(=O)[C@H](Cc2ccccc2)NC(=O)[C@H](CC(N)=O)NC(=O)[C@H](CCCCN)NC1=O [somatostatin-25] (H-SNPAMAPRERKAGCKNFFWKTFTSC-OH; disulfide 14-25),much more active than somatostatin,more potent than somatostatin,–
CSCC[C@H](NC(=O)[C@H](C)NC(=O)[C@@H]1CCCN1C(=O)[C@H](CC(N)=O)NC(=O)[C@H](CO)NC(=O)[C@H](CC(N)=O)NC(=O)[C@H](C)NC(=O)[C@@H](N)CO)C(=O)N[C@@H](C)C(=O)N1CCC[C@H]1C(=O)N[C@@H](CCCNC(=N)N)C(=O)N[C@@H](CCC(=O)O)C(=O)N[C@@H](CCCNC(=N)N)C(=O)N[C@@H](CCCCN)C(=O)N[C@@H](C)C(=O)NCC(=O)N[C@H]1CSSC[C@@H](C(=O)O)NC(=O)[C@H](CO)NC(=O)[C@H]([C@@H](C)O)NC(=O)[C@H](Cc2ccccc2)NC(=O)[C@H]([C@@H](C)O)NC(=O)[C@H](CCCCN)NC(=O)[C@H](Cc2c[nH]c3ccccc23)NC(=O)[C@H](Cc2ccccc2)NC(=O)[C@H](Cc2ccccc2)NC(=O)[C@H](CC(N)=O)NC(=O)[C@H](CCCCN)NC1=O [somatostatin-28],much more active than somatostatin,more potent than somatostatin,–
"somatostatin: tetradecapeptide somatostatin characterized by Guillemin et al., U.S. Pat. No. 3,904,594 (H-AGCKNFFWKTFTSC-OH; disulfide 3-14; ends not checked; UniProt P61278 103-116, looked up)",–,–,≤ 50
